Results as given in PubChem BioAssay AID1417 (Emory University Molecular Libraries Screening Center, 2008).

Biological target: Induced myeloid leukemia cell differentiation protein Mcl-1 (Homo sapiens) (UniProt Q07820)
Assay: Mcl-1 Noxa peptide disruption concentration-response – biochemical, TR-FRET, dose response (AID 1417)
Conditions: Mcl-1/Noxa peptide interaction, cell-free TR-FRET (terbium/rhodamine), 2 h; measured here: absolute IC50

Sequence of Induced myeloid leukemia cell differentiation protein Mcl-1 (Homo sapiens) (Q07820 whole entry, looked up): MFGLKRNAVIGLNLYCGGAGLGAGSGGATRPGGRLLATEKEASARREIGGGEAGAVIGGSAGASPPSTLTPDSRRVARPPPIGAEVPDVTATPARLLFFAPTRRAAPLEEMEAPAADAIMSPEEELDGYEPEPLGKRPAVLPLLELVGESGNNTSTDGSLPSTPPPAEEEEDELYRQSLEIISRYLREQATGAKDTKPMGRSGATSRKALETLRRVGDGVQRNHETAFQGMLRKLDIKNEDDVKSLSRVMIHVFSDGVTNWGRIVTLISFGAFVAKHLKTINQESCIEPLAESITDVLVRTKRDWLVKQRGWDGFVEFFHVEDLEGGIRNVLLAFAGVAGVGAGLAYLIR

Compound	IC50 [µM]
CC1C(=O)NN=C1C(=O)N/N=C\c1ccc(O)cc1O (stereo not given)	< 0.4
O=C(O)c1cccc(Cn2c(Cl)c(/C=N/NC(=O)c3cc4ccccc4cc3O)sc2=O)c1	3.35
Cc1ccc(N=C2NC(=O)/C(=C/C=C/c3ccco3)S2)cc1C	4.62
O=C(O)CCN1C(=O)/C(=C\c2ccc(-c3nc4ccccc4s3)o2)SC1=S	< 0.4
COc1cc(-c2nnc(SCc3cc(=O)oc4cc(O)c(O)cc34)o2)cc(OC)c1OC	< 0.4
O=[N+]([O-])c1cc(Cl)cc(/C=N/NC(=S)Nc2cc(S(=O)(=O)N3CCOCC3)ccc2Cl)c1O	< 0.4
CCN(CC)S(=O)(=O)c1ccc(N2CCOCC2)c(NC(=O)c2c3c(nc4ccccc24)CCC3)c1	5.73
O=C(N/N=C/c1ccc(O)c(O)c1O)/C(=C/c1ccc([N+](=O)[O-])cc1)NC(=O)c1ccccc1	< 0.4
CN(C)c1ccc(C(CNC(=O)c2ccccc2Br)c2c[nH]c3ccccc23)cc1 (stereo not given)	> 54
Nc1cc(C(=O)O)c(N)c2c1C(=O)c1ccccc1C2=O	< 0.4
Cc1ccc(-n2c(=O)c3cc4c(=O)n(-c5ccc(C)c(C)c5)c(=O)c4c(C(=O)c4ccc(C(=O)O)cc4)c3c2=O)cc1C	4.28
Nc1cc2c(cc1[N+](=O)[O-])OCO2	6.98
N=C1/C(=C/c2ccc(-c3cccc(C(=O)O)c3)o2)C(=O)N=C2SC=C(c3ccccc3)N12	< 0.4
CCOC(=O)C1=C(C)NC2=C(C(=O)CC(C)(C)C2)C1c1ccc2c(c1)CCCN2C (stereo not given)	> 54
Oc1cccc2cc3cccc(O)c3c(O)c12	1.96
Cc1cccc(/C=C/C(=O)c2ccc(NC3=NCCCS3)cc2)c1	4.9
COc1ccc2[nH]c3c4c(ccc3c2c1)C(=O)C=CC4=O	< 0.4
CC(/C=N/NC(=O)c1cc(-c2ccc3ccccc3c2)n[nH]1)=C\c1ccco1	4.91
Cc1cc(C(=O)N/N=C/c2cc(N=Nc3ccccc3)ccc2O)n[nH]1	10.9
CCCC1=NN2C(=N)/C(=C\c3ccc(SCc4ccco4)o3)C(=O)N=C2S1	< 0.4
COc1cc2c(cc1O)C[C@H]1NCCc3cc4c(c-2c31)OCO4	5.2
Cc1ccc(C(=O)OCC(=O)Nc2ccc(N(C)C)cc2)cc1NC(=O)c1ccco1	> 54
COc1ccc(NC(=O)Cc2c(SC)c3ccccc3n2Cc2ccccc2)cc1	> 54
Nc1cccnc1Sc1cc(Cl)c(Cl)cc1Cl	> 54
COc1cc(/C=N/NC(=O)c2ccc([N+](=O)[O-])cc2Cl)cc(Br)c1O	> 54

Compound	IC50 [µM]
Cc1ccc(C(=O)Nc2ccc(N3CCCC3)cc2)cc1	> 54
CSc1ccc(/C=N/Nc2cccc(C(=O)O)c2)cc1	0.893
COc1cc(/C=N/Nc2nc(C)nc3c2cnn3-c2ccccc2)ccc1O	13.3
CCC1CSC(Nc2ccc(C(=O)/C=C/c3cccc(C)c3)cc2)=N1 (stereo not given)	< 0.4
C=CCSC1=N/C(=C\C=C\c2ccco2)C(=O)S1	5.07
COc1ccc2c(=O)c3c(=O)n(-c4ccc(C)cc4)c(-c4ccccc4)nc3oc2c1	> 54
O=C(O)COc1ccccc1C(Nc1cccnc1)c1cc(Cl)c2cccnc2c1O (stereo not given)	< 0.4
O=C(COC(=O)Cn1cnc2ccccc21)Nc1ccc2c(c1)C(=O)c1ccccc1C2=O	2.59
COc1ccc(O)c(N)c1	< 0.4
O=[N+]([O-])c1c(NCCO)cc(Sc2nc3ccccc3s2)c2nonc12	> 54
CCN(CC)c1ccc(NC(=O)Nc2cccc(C(C)=O)c2)cc1	> 54
O=C(O[C@@H]1OC2COC(=O)c3cc(O)c(O)c(O)c3-c3c(cc(O)c(O)c3O)C(=O)O[C@@H]([C@H]1O)[C@@H]2O)c1cc(O)c(O)c(O)c1	< 0.4
CCN1C(=O)/C(=C\c2ccc(-c3ccc([N+](=O)[O-])cc3OC)o2)SC1=Nc1cccc(C(=O)O)c1	< 0.4
COc1ccc(/C=C2/C(=O)N(c3nc4ccccc4s3)N=C2CSc2ccc(Cl)cc2)cc1	< 0.4
Nc1ccc(N)c(C(=O)O)c1	1.31
O=C1N=c2ccccc2=C1c1c(O)n(-c2cccc(F)c2)[nH]c1=O	< 0.4
CCOC(=O)N1CCN(c2c(NCCCN(CC)Cc3ccccc3)c(=O)c2=O)CC1	4.06
CC1=NN(c2ccccc2)C(=O)/C1=C/c1c(O)n(-c2ccc(F)c(Cl)c2)[nH]c1=O	4.79
O=C(N/N=C/c1cccc(F)c1)c1cc(-c2ccco2)nc2ccccc12	< 0.4
Cc1nc2c(c(=O)n1CCC1=CCCCC1)c1nc3ccccc3nc1n2/N=C/c1ccco1	4.44
O=[N+]([O-])c1cc([N+](=O)[O-])c2cccnc2c1Oc1ccccc1O	1.27
Cc1cc(NS(=O)(=O)c2ccc(Nc3nc(-c4sc(NC(=O)c5ccccc5)nc4C)cs3)cc2)no1	1.77
CC1CCN(C(c2ccc(N(C)C)cc2)c2nnnn2C(C)(C)C)CC1 (stereo not given)	12.5
COc1ccc(N/C=C2\C(=O)CCc3c2oc2cc(Cl)c(O)c(Cl)c32)cc1	5.07
CCN1C(=O)/C(=C2/Sc3ccc(OC)cc3N2C)SC1=Nc1cccc(O)c1	> 54

Compound	IC50 [µM]
Cc1[nH]n(-c2ccc(Br)cc2)c(=O)c1C=Nc1ccc(S(=O)(=O)Nc2nccs2)cc1	8.08
O=C(O)c1ccc(N/N=C/C2=C(N3CCOCC3)C(=C\c3ccccc3)/CC2)cc1	2.02
COc1cc(/C=C/C(=O)OCC(=O)Nc2cc(C)c(C)cc2[N+](=O)[O-])ccc1O	2.4
CCN(c1ccc(NC(=O)COC(=O)c2cccs2)cc1)C(C)C	> 54
CCOc1c(Cl)cc(CNc2ccc(N3CCCC3)cc2)cc1OC	1.58
COc1cc(/C=C(\C#N)c2nc3ccc(C)cc3[nH]2)cc([N+](=O)[O-])c1O	3.44
CCCCn1c(-c2ccc(Cl)cc2)nc2c(=O)n(C)c(=O)[nH]c21	> 54
COc1ccc(NC(=O)CSc2ncnc3c2sc2ccccc23)c(OC)c1	> 54
CC(C)c1nc2sc3c(=O)[nH]c(=S)[nH]c3c2c2c1CCC2	7.39
CCCCN1C(=O)/C(=C/C=C/c2ccco2)C(=O)NC1=S	0.55
COc1ccc2nc(-c3ccco3)c(-c3ccco3)nc2c1	2.25
CNc1ccc(Br)cc(C(=O)/C=C/c2cccc(OC)c2)c1=O	4.9
Cn1c(=O)c(C(=O)COC(=O)c2cc(-c3ccco3)nc3ccccc23)c(N)n(Cc2ccccc2)c1=O	< 0.4
CSc1nc(N(C)CCO)c2sc3nc(-c4ccco4)c4c(c3c2n1)CCC4	< 0.4
O=C(NCCCO)c1ccc2nc(-c3ccco3)c(-c3ccco3)nc2c1	> 54
CCc1nn2c(=O)cc(COc3ccc(/C=C4\C(=N)N5N=C(C)SC5=NC4=O)cc3)nc2s1	3.78
Cc1ccc(NS(=O)(=O)c2cc([N+](=O)[O-])ccc2NNC(=S)Nc2cccc(Cl)c2)c(C)c1	> 54
O=C(N/N=C/c1ccco1)c1cccc(N2Cc3ccccc3C2)c1	3.5
COc1cc(C(c2nnnn2C2CCCC2)N2CCc3ccccc3C2)ccc1O (stereo not given)	< 0.4
CCOC(=O)c1c(C)oc2c1c(C(c1ccncc1)N1CCOCC1)c(O)c1ccccc12 (stereo not given)	< 0.4
COc1ccc(Cc2nnc(NC(=O)Cc3cccs3)s2)cc1	< 0.4
O=C(N/N=C/c1ccc(-c2ccc(Cl)c(C(=O)O)c2)o1)c1cc2c(ccc3ccccc32)o1	< 0.4
Cc1ccc(S(=O)(=O)/N=C2/C=C(Sc3ncn[nH]3)C(=O)c3ccccc32)cc1	< 0.4
O=C1NC(=O)N(Cc2ccc(F)cc2)C(=O)/C1=C\c1ccc([N+](=O)[O-])s1	7.45
CCC(=O)N(CC)C1=C(O)c2ccccc2C(=O)C1=O	0.997
